Data: ChEMBL document CHEMBL5108037, “Cyclic Peptide Screening Methods for Preclinical Drug Discovery” (J Med Chem, 2022)
Starred links: 1 amine or outer side, 2 acyl side, 3 side chain; linkers in the order of their positions; H or OH if unused. Positions of bridges follow the written chain, without caps; N, C: chain ends. Non-standard residues stand in square brackets, D forms with d. Residues, ends and D or L forms follow the SMILES beside them. *: point of attachment. X2 = CC1CCN(C[C@H](N[*:1])C(=O)[*:2])CC1; X3 = NC(=O)CNC[C@H](CSCC(=O)[*:1])N[*:2]; Gly((CH2)5SH) = N[C@@H](CCCCCS)C(=O)O; mXylylene = c1cc(C[*:1])cc(C[*:2])c1; X1 = O=C(CN(CC[*:3])[*:1])[*:2]; Nle = CCCC[C@H](N)C(=O)O; CH2CH2 = C(C[*:2])[*:1]; Dap = NC[C@H](N)C(=O)O; BrAc = O=C(CBr)*; βAla = NCCC(=O)O; Mpa = O=C(O)CCS

How the values were obtained:
[1] = biological target: Sonic hedgehog protein (Homo sapiens, UniProt Q15465); test: Binding affinity to SHH (unknown origin) assessed as dissociation constant by calorimetric analysis
Sequence of Sonic hedgehog protein (Q15465 24-197 limits assumed): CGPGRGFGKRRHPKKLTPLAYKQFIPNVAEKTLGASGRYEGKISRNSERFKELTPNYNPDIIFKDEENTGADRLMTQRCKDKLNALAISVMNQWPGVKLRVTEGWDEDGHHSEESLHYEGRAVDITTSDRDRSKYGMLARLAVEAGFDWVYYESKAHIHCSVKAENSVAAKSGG

[2] = biological target: T1, Kelch-like ECH-associated protein 1 (Homo sapiens, UniProt Q14145); test: Inhibition of Keap1 (unknown origin) by ELISA analysis
T1 sequence (Q14145 whole entry): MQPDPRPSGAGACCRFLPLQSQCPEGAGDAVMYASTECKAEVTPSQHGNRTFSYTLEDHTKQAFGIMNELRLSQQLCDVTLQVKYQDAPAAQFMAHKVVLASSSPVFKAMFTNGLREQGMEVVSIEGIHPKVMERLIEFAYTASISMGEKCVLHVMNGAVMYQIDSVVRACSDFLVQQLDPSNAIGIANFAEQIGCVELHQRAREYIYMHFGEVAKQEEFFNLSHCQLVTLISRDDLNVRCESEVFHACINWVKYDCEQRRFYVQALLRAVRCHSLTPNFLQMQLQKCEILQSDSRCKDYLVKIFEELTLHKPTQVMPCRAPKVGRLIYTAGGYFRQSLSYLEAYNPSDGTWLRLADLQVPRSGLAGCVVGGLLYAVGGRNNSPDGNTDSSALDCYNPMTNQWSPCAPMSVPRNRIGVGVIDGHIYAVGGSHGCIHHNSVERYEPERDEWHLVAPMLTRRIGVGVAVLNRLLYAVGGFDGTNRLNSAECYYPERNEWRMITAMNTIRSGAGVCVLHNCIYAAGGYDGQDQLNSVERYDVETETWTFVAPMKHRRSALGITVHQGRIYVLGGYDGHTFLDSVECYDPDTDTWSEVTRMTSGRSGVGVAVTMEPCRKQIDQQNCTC

[3] = biological target: T1, Kelch-like ECH-associated protein 1; test: Binding affinity to Keap1 (unknown origin) assessed as dissociation constant by calorimetric analysis
[4] = biological target: GTPase KRas (Homo sapiens, UniProt P01116, G12D); test: Inhibition of human His-Avi-TEV-tagged KRAS G12D mutant expressed in Escherichia coli BL21(DE3) by TR-FRET assay
Sequence of GTPase KRas (P01116 whole entry G12D, the tested form may be a part): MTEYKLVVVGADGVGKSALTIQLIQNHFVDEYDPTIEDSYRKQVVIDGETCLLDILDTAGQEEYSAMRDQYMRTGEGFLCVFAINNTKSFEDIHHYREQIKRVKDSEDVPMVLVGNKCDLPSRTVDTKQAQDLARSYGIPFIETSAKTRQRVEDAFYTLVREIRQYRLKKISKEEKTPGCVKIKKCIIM

[5] = biological target: T2, TCF4-CTNNB1 complex (Homo sapiens, UniProt P35222); test: Binding affinity to FITC-labeled Tcf4 (unknown origin) /6His-tagged beta-catenin (135 to 668 residues) (unknown origin) protein-protein interaction assessed as inhibition constant by fluorescence polarization assay; assay type: protein-complex assay
T2 sequence (P35222 whole entry): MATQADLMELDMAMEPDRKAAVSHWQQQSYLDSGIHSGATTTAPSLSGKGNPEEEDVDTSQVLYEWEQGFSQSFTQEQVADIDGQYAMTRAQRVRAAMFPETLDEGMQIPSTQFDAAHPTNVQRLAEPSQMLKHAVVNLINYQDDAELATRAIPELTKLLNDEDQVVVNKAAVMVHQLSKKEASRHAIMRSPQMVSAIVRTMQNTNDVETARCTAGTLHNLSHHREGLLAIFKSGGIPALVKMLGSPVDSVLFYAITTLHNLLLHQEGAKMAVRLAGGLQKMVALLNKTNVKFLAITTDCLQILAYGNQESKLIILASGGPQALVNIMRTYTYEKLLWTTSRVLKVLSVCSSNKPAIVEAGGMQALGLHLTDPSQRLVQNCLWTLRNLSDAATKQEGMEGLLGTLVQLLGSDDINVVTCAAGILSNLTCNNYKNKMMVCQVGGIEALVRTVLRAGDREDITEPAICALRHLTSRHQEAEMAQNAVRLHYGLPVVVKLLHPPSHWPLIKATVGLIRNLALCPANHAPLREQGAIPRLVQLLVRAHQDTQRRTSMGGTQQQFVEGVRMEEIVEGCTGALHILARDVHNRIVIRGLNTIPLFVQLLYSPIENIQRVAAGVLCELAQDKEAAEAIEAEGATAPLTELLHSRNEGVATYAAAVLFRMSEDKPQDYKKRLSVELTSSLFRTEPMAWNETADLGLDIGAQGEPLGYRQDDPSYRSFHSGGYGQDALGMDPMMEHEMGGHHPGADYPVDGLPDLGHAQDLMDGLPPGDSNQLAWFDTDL
T2 sequence (P15884 whole entry): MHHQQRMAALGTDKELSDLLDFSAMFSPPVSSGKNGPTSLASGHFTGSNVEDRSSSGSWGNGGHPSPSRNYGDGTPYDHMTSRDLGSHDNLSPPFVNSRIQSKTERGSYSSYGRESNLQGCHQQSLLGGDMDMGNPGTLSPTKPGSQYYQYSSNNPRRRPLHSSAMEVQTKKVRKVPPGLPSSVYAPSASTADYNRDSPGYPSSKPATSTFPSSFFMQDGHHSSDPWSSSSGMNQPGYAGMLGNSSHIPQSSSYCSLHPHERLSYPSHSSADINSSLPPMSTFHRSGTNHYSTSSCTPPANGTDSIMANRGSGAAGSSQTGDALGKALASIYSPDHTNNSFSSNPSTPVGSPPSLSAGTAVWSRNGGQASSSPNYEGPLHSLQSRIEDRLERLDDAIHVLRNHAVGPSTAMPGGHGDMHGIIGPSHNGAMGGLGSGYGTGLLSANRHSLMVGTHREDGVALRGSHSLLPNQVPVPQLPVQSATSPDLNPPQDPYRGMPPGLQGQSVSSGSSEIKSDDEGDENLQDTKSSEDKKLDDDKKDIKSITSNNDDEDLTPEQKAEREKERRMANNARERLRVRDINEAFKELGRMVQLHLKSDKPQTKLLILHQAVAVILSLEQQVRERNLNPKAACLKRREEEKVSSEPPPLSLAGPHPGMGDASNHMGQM

[6] = biological target: T3, Protein deacetylase HDAC6 (Homo sapiens, UniProt Q9UBN7); test: Inhibition of HDAC6 (unknown origin)
T3 sequence (Q9UBN7 whole entry): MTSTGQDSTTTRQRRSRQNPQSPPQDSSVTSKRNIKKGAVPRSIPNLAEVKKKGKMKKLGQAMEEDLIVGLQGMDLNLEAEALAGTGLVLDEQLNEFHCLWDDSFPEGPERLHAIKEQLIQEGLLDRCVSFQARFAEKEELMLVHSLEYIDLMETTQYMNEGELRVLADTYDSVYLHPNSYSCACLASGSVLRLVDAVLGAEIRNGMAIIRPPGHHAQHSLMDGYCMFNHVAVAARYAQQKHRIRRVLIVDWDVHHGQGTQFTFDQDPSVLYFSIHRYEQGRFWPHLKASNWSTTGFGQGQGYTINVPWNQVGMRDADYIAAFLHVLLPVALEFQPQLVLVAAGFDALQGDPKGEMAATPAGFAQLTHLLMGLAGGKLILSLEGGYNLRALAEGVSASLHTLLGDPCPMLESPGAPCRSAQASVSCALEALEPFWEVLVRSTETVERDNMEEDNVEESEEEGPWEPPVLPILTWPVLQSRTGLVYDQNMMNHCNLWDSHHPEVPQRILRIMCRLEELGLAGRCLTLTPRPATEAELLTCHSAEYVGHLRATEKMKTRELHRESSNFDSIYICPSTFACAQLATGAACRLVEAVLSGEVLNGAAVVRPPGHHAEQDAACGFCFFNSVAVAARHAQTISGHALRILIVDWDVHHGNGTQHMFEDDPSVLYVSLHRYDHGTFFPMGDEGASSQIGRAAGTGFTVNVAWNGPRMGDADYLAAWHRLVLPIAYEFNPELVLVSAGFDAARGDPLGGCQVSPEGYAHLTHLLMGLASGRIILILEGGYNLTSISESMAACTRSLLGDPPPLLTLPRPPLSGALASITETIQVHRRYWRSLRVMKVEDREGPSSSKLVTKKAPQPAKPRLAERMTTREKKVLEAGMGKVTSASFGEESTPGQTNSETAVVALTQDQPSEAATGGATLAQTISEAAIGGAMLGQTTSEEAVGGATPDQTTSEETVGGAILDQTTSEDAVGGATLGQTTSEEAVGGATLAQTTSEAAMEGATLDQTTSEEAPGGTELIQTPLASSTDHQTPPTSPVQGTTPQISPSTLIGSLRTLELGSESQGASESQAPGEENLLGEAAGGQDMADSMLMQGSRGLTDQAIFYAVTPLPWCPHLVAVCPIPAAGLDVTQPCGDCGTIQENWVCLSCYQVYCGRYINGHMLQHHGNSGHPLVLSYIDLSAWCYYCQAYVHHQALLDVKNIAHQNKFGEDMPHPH

[7] = biological target: T2, TCF4-CTNNB1 complex; test: Inhibition of FITC-labeled Tcf4 (unknown origin) / full length beta-catenin (1 to 781 residues) (unknown origin) protein-protein interaction measured after 1 hr by fluorescence polarization assay; assay type: protein-complex assay
[8] = Inhibition of NDM-1 (unknown origin); design: species or system Bacteria

Q: With `CSCC[C@@H]1NC(=O)[C@H](C)NC(=O)[C@H](CCC(=O)O)NC(=O)[C@@H](NC(=O)[C@@H]2CCCN2C(=O)[C@H](CO)NC(=O)[C@H](CO)NC(=O)CN)Cc2ccc(cc2)OCCSC[C@@H](C(=O)N[C@H](C(=O)N[C@@H](CC(=O)O)C(=O)N[C@H](C(=O)NCC(=O)O)[C@@H](C)O)[C@@H](C)O)NC(=O)[C@H](CCSC)NC(=O)[C@H](CC(=O)O)NC1=O` (H-GSSPYEAMDMCTDTG-OH; linker 5-11 via CH2CH2) as the molecule, how does the Kd [1] read?
A: 550 nM

Q: With `C[C@@H](O)[C@@H]1NC(=O)[C@H](CCC(=O)O)NC(=O)[C@H](CO)NC(=O)[C@H](CC(=O)O)NC(=O)[C@@H](N)Cc2ccc(cc2)OCCSC[C@@H](C(=O)O)NC(=O)[C@H](CCC(=O)O)NC(=O)CNC1=O` (H-YDSETGEC-OH; linker 1-8 via CH2CH2) as the molecule, how does the IC50 [2] read?
A: 2.8 nM

Q: And the Kd [3]?
A: 110 nM

Q: Which IC50 [4] does the source give for `CC1CCN(C[C@@H]2NC(=O)[C@H](CCCNC(=N)N)NC(=O)[C@H](Cc3ccccc3)NC(=O)[C@H](CC(N)=O)NC(=O)[C@H](CCCNC(=N)N)NC(=O)[C@H](Cc3ccccc3)NC(=O)[C@H](CC(N)=O)NC(=O)[C@H](C(C)C)NC(=O)[C@H](Cc3ccccc3)NC(=O)[C@H](Cc3ccc(O)cc3)NC(=O)CSC[C@@H](CNCC(N)=O)NC(=O)[C@H](CCCNC(=N)N)NC(=O)[C@H](Cc3ccccc3)NC2=O)CC1` (YFVNFRNFR[X2]FR; linker N-C via X3) here?
A: 800 nM

Q: For `CC[C@H](C)[C@@H]1NC(=O)[C@H](CNC(=O)CBr)NC(=O)[C@H](CC(=O)O)NC(=O)[C@H](CC(=O)O)NC(=O)CNC(=O)[C@@H]2CCCN2C(=O)[C@H](C)NC(=O)[C@H](CCCNC(=N)N)NC(=O)[C@H]([C@@H](C)O)NC(=O)[C@H](CCC(N)=O)NC(=O)[C@H]([C@@H](C)O)NC(=O)CCSCCN(CC(N)=O)C(=O)[C@H](Cc2ccccc2)NC(=O)[C@H]([C@@H](C)O)NC1=O` ([Mpa]TQTRAPGDD[Dap](BrAc)ITF[X1]-NH2; thioether 1-15), which IC50 [5] is on record?
A: 4000 nM

Q: Which IC50 [6] does the source give for `CCCC[C@@H]1NC(=O)[C@H](Cc2ccccc2)NC(=O)[C@H](CCCCCS)NC(=O)[C@H](CCCNC(=N)N)NC(=O)[C@H](CC(=O)O)NC(=O)[C@H](CO)NC(=O)[C@H](C)NC(=O)[C@H](CCCCN)NC1=O` (cyclo(ASDR[Gly((CH2)5SH)]F[Nle]K)) here?
A: 17 nM

Q: With `CC(C)C[C@@H]1NC(=O)[C@@H]2CSCc3cccc(c3)CSC[C@H](NC(=O)[C@H](CC(N)=O)NC(=O)[C@H](CCCNC(=N)N)NC(=O)[C@H]([C@@H](C)O)NC(=O)[C@H](C(C)C)NC(=O)CCNC(=O)CCNC(=O)[C@H](Cc3ccccc3)NC(=O)[C@H](C(C)C)NC(=O)[C@H](CC(C)C)NC1=O)C(=O)N[C@@H](C(C)C)C(=O)N1CCC[C@H]1C(=O)N1CCC[C@H]1C(=O)N[C@@H](CC(=O)O)C(=O)N2` (cyclo(CLLVF[βAla][βAla]VTRNCVPPD); linker 1-12 via mXylylene) as the molecule, how does the IC50 [7] read?
A: 4800 nM

Q: With `CC[C@H](C)[C@@H]1NC(=O)[C@@H]2CCCN2C(=O)[C@H](CC(=O)O)NC(=O)[C@H](CCCNC(=N)N)NC(=O)[C@H](CCCNC(=N)N)NC(=O)[C@H](CC(C)C)NC(=O)[C@H](CS)NC(=O)[C@@H]2CCCN2C1=O` (cyclo(CLRRDPIP)) as the molecule, how does the IC50 [8] read?
A: 1200 nM
